Values of other authors, collected in patent publication US20060210650A1, “Supplemental dietary composition for promoting weight loss” (priority 2004, published 2006).

Conditions: 8-week study

O=C(O)CC(O)(C(=O)O)C(O)C(=O)O (single isomer, unassigned; (-)) [HCA, (−) hydroxycitric acid]
High-Density Lipoproteins and excretion of urinary fat metabolites: increased | LDL-cholesterol, triglycerides and serum leptin levels: decrease
